Test results from patent publication US20260256763A1, “Aromatic Amide Derivative, And Preparation Method Therefor And Use Thereof” (Zhejiang Hisun Pharmaceutical Co., Ltd., priority 2023, published 2026).
pIC50: −log10 of the molar value.

Key:
[1] = tested on: OVCAR-3 human ovarian adenocarcinoma tumor fragment xenograft; assay: Pharmacodynamic testing in OVCAR-3 tumor fragment xenograft model; format: in vivo, BALB/c nude mice; details: 16 days after administration; for Relative tumor volume (x ± S) / Tumor volume (x ± S): mean ± standard error; for Tumor volume (x ± S): in mm³
Description: An anti-tumor effect of Compound 1 of the present invention in a BALB/c nude mouse animal model with subcutaneous OVCAR-3 human ovarian adenocarcinoma tumor fragment xenograft was evaluated.
BALB/c nude mice, female, 6-7 weeks old, purchased from Jiangsu Gempharmatech Biotechnology Co., Ltd.
Mice in a solvent control group were given DMA:CrEL:5% GS=10:10:80 (v:v:v).
AMG650: a proper amount of AMG-650 was weighed, proper amounts of DMA, CrEL and 5% GS were added in sequence, and the obtained system was evenly mixed by ultrasonic vortex to prepare 0.8 mg/mL and 0.4 mg/mL preparations respectively, wherein DMA, CrEL and 5% GS=10:10:80 (v:v:v).
Compound 1: a proper amount of Compound 1 was weighed, proper amounts of DMA, CrEL and 5% GS were added in sequence, and the obtained system was evenly mixed by ultrasonic vortex to prepare 0.8 mg/mL and 0.4 mg/mL preparations respectively, wherein DMA, CrEL and 5% GS=10:10:80 (v:v:v).
An appropriate OVCAR-3 tumor-bearing animal was selected, a 1 mm×1 mm×1 mm OVCAR-3 tumor fragment was acquired aseptically and placed into normal saline for later use, which was used for subcutaneous tumor inoculation in a right side of back of the BALB/c nude mice.
About 1 mm×1 mm×1 mm OVCAR-3 tumor fragment was subcutaneously inoculated in the right side of back of the female BALB/c nude mice. When an average tumor volume reached about 100-250 mm^3, the mice were randomly grouped according to the tumor size, with 6 mice in each group.
Animals in each group were given the test compound once per day according to an animal weight at a fixed time every day by oral administration (po), the animals started to be administered with the test compound for the first time on the day of grouping for 22 consecutive days, and the animal weight was recorded every day. • The 1st group (G1) was a solvent control group; • The 2nd group (G2) and the 3rd group (G3) were orally administered with AMG-650 at administration dosages of 8 mg/kg and 4 mg/kg respectively once per day (QD); and • The 4th group (G4) and the 5th group (G5) were orally administered with Compound 1 at administration dosages of 8 mg/kg and 4 mg/kg respectively once per day (QD).
Tumor formation at an inoculation site of the animals in each group was observed, and a tumor volume was measured twice per week, and calculated according to the following formula: • a tumor volume (TV), a relative tumor volume (RTV), a relative tumor proliferation rate (T/C) and a relative tumor inhibition rate (TGI) were calculated according to the following formulas:
TV (tumor volume)=½×a×b^2, wherein a and b respectively represented a tumor length and a tumor width; (1)
RTV (relative tumor volume)=Vt/V0, wherein V0 was a tumor volume measured at the time of grouping, and Vt was a tumor volume in each measurement; (2)
T/C (%)=TRTV/CRTV×100%, wherein TRTV was RTV of a treatment group, and CRTV was RTV of a solvent control group; and (3)
TGI %=(1−T/C)×100%, wherein T and C were relative tumor volumes of the treatment group and the solvent control group at a specific time point respectively. (4)

HT-29 cells = assay: Inhibition on HT-29 cell proliferation (CellTiter-Glo); format: cell-based; details: Homo sapiens, HT-29 cells (TP53 R273H mutation), 120 hours
Description: Influences of the compounds of the present invention on HT-29 cell proliferation were determined by the following method. HT-29 cells (containing TP53 R273H mutation) were purchased from the Cell Bank of Shanghai Institute of Biochemistry and Cell Biology, Chinese Academy of Sciences, and cultured in a McCOY's 5A culture medium containing 10% fetal bovine serum, 100 U penicillin and 100 μg/mL streptomycin. A cell viability was determined by a CellTiter-Glo® Luminescent Cell Viability Assay kit (Promega, article number G7573).
An experimental method was operated according to steps in the instruction of the kit, which was briefly described as follows: a test compound was dissolved in DMSO first to prepare a 10 mM stock solution, then the stock solution was diluted with the above McCOY's 5A culture medium to prepare a test sample, and a final concentration of the compound was in a range of 1000 nM-0.015 nM. Cells in a logarithmic growth phase were inoculated into a 96-well cell culture plate at a density of 1000 cells per well, cultured in a 5% CO2 incubator at 37° C. overnight, and then the test compound was added to continuously culture for 120 hours. After the culture was ended, 50 µL of CellTiter-Glo detection solution was added to each well, the plates were shaken for 5 minutes, and then allowed to stand for 10 minutes, and subsequently, a luminous value of each well of sample was read by a microplate reader in a Luminescence mode. By comparing with a numerical value of a control group (0.3% DMSO), a percentage inhibition rate of the compound at each concentration was calculated, and then nonlinear regression analysis was carried out based on concentration logarithm-inhibition rate of the compound in GraphPad Prism 5 software, so as to obtain an IC50 value of the compound in inhibition on cell proliferation, which are shown in Table 2.

CCS(=O)(=O)Nc1ccc(C(=O)Nc2cc3c(c(N4CCC(F)(F)CC4)c2)OCC3)c(N2CCC3(CC2)CC3)c1 [Example 1, N-(7-(4,4-difluoropiperidin-1-yl)-2,3-dihydrobenzofuran-5-yl)-4-(ethylsulfonamido)-2-(6-azaspiro[2.5]octan-6-yl)benzamide]
TGI ([1]; 4 mg/kg po QD): 81.3%
Relative tumor volume (x ± S) ([1]; 4 mg/kg po QD): 0.61 ± 0.11
Tumor volume (x ± S) ([1]; 4 mg/kg po QD): 120 ± 27
TGI ([1]; 8 mg/kg po QD): 95.2%
Relative tumor volume (x ± S) ([1]; 8 mg/kg po QD): 0.16 ± 0.03
Tumor volume (x ± S) ([1]; 8 mg/kg po QD): 31 ± 8
pIC50 (HT-29 cells): 8.62
